Measurements as given in patent US20240366770A1, “DEGRADATION OF BRUTON'S TYROSINE KINASE (BTK) BY CONJUGATION OF BTK INHIBITORS WITH E3 LIGASE LIGAND AND METHODS OF USE” (BeiGene Switzerland GmbH, priority 2021, published 2024).
Like-named read-outs stand apart in the source and are kept apart here.

Key:
BTK = target: T1, BTK (Homo sapiens, UniProt Q06187); test: BTK degradation in TMD-8 cells (HTRF assay); format: cell-based; conditions: 6 h treatment, IC50 (DC50) of BTK degradation
T1 construct: High control=Cell group with added DMSO and without compound, indicating microplate readings without BTK degradation; endogenous in cells; host or cells: TMD-8
T1 sequence (Q06187 whole entry): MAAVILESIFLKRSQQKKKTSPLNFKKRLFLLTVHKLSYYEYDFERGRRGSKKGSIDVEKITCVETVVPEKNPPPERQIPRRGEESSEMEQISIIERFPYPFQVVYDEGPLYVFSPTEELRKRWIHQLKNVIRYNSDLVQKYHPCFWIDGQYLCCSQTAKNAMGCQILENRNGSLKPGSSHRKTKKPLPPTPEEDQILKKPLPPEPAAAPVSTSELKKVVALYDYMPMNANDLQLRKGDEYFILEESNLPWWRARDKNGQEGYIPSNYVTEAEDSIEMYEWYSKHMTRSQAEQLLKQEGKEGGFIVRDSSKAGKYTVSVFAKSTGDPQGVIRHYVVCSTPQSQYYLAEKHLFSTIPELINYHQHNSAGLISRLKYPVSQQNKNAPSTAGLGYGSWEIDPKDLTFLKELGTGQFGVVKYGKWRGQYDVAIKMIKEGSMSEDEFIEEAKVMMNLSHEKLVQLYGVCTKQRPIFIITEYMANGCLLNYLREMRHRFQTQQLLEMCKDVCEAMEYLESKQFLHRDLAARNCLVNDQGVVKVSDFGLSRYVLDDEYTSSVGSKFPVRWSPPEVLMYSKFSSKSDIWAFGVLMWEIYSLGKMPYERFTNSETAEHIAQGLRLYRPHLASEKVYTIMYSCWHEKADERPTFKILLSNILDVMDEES
Procedure, shortened: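 BTK remaining after compound treatment was measured by HTRF (337 nm excitation, 665/620 nm emission) in lysates of TMD-8 cells. Cells were exposed for 6 h to eight 6-fold-spaced concentrations in 0.2% DMSO. DC50 values were obtained from a Hill-equation fit (top, bottom, slope) of % inhibition.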

HEK-293 cells = test: HEK-293 cytotoxicity detection (CellTiter-Glo); format: cell-based; conditions: HEK-293 cells, 72 h incubation, CellTiter-Glo luminescence, IC50 of cell proliferation inhibition, read-out: HEK293
Procedure, shortened: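 Four-parameter logistic fitting of percent inhibition versus concentration gives IC50. Luminescent ATP read-out (CellTiter-Glo) after 72 h compound treatment of HEK-293 cells, 8 doses in 4-fold steps from a 5 mM 500× DMSO stock, final DMSO 0.2%.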

Structure (SMILES) | DC50 (BTK) | IC50 (HEK-293 cells) | IC50 (HEK-293 cells; Homo sapiens)
Cc1cc(-c2ncnc3[nH]c4cc(N5CCC6(CC5)CCN(C5CC(c7ccc(N[C@H]8CCC(=O)NC8=O)cc7)C5)CC6)ccc4c23)ccc1[C@@H](C)NC(=O)c1nc(C(C)(C)C)no1 (stereo partly drawn) [Example 108, 3-(tert-butyl)-N-((1R)-1-(4-(7-(9-((1s,3s)-3-(4-((2,6-dioxopiperidin-3-yl)amino)phenyl)cyclobutyl)-3,9-diazaspiro[5.5]undecan-3-yl)-9H-pyrimido[4,5-b]indol-4-yl)-2-methylphenyl)ethyl)-1,2,4-oxadiazole-5-carboxamide] | 2.64 nM | 949 nM | 
COc1cc2c(cc1N1CCN(C3CC(c4ccc([C@@H]5CCC(=O)NC5=O)cc4)C3)CC1)[nH]c1ncnc(-c3ccc([C@@H](C)NC(=O)c4nc(C(C)(C)C)no4)c(C)c3F)c12 (stereo partly drawn) [Example 55, 3-(tert-butyl)-N—((R)-1-(4-(7-(4-(3-(4-((S)-2,6-dioxopiperidin-3-yl)phenyl)cyclobutyl)piperazin-1-yl)-6-methoxy-9H-pyrimido[4,5-b]indol-4-yl)-3-fluoro-2-methylphenyl)ethyl)-1,2,4-oxadiazole-5-carboxamide] | 6.97 nM |  | > 10000 nM
COc1cc2c(cc1N1CCN(C3CC(c4ccc(N[C@H]5CCC(=O)NC5=O)cc4)C3)CC1)[nH]c1ncnc(-c3cc(C)c([C@@H](C)NC(=O)c4nc(C5(C)CC5)no4)cc3F)c12 (stereo partly drawn) [Example 94, N—((R)-1-(4-(7-(4-((1S,3s)-3-(4-(((R)-2,6-dioxopiperidin-3-yl)amino)phenyl)cyclobutyl)piperazin-1-yl)-6-methoxy-9H-pyrimido[4,5-b]indol-4-yl)-5-fluoro-2-methylphenyl)ethyl)-3-(1-methylcyclopropyl)-1,2,4-oxadiazole-5-carboxamide] | 0.768 nM | 420 nM | 
Cc1cc(-c2ncnc3[nH]c4cc(N5CCC6(CC5)CCN(C5CC(c7ccc([C@H]8CCC(=O)NC8=O)cc7)C5)C6)ccc4c23)ccc1[C@@H](C)NC(=O)c1nc(C(C)(C)C)no1 (stereo partly drawn) [Example 102, 3-(tert-butyl)-N—((R)-1-(4-(7-(2-(3-(4-((R)-2,6-dioxopiperidin-3-yl)phenyl)cyclobutyl)-2,8-diazaspiro[4.5]decan-8-yl)-9H-pyrimido[4,5-b]indol-4-yl)-2-methylphenyl)ethyl)-1,2,4-oxadiazole-5-carboxamide] | 4.88 nM |  | 1020 nM
Cc1cc(-c2ncnc3[nH]c4c(c23)CCC(N2CCN(CC3CCN(c5ccc(N6CCC(=O)NC6=O)cc5)CC3)CC2)C4)ccc1[C@@H](C)NC(=O)c1nc(C(C)(C)C)no1 (stereo partly drawn) [Example 132, 3-(tert-butyl)-N-((1R)-1-(4-(7-(4-((1-(4-(2,4-dioxotetrahydropyrimidin-1(2H)-yl)phenyl)piperidin-4-yl)methyl)piperazin-1-yl)-6,7,8,9-tetrahydro-5H-pyrimido[4,5-b]indol-4-yl)-2-methylphenyl)ethyl)-1,2,4-oxadiazole-5-carboxamide] | > 2000 nM |  | > 10000 nM
Cc1cc(-c2ncnc3[nH]c4cc(N5CCC6(CC5)CCN([C@H]5C[C@H](c7ccc(N[C@@H]8CCC(=O)NC8=O)cc7)C5)CC6)ccc4c23)ccc1[C@@H](C)NC(=O)c1nc(C(C)(C)C)no1 [Example 109, 3-(tert-butyl)-N—((R)-1-(4-(7-(9-((1R,3r)-3-(4-(((R)-2,6-dioxopiperidin-3-yl)amino)phenyl)cyclobutyl)-3,9-diazaspiro[5.5]undecan-3-yl)-9H-pyrimido[4,5-b]indol-4-yl)-2-methylphenyl)ethyl)-1,2,4-oxadiazole-5-carboxamide] | 6.07 nM |  | 1010 nM
Cc1c([C@@H](C)NC(=O)c2nc(C3(C)CC3)no2)ccc(-c2ncnc3[nH]c4cc(N5CCN(CC6CCN(c7ccc(N8CCC(=O)NC8=O)cc7)CC6)CC5)ccc4c23)c1F [Example 64, (R)—N-(1-(4-(7-(4-((1-(4-(2,4-dioxotetrahydropyrimidin-1(2H)-yl)phenyl)piperidin-4-yl)methyl)piperazin-1-yl)-9H-pyrimido[4,5-b]indol-4-yl)-3-fluoro-2-methylphenyl)ethyl)-3-(1-methylcyclopropyl)-1,2,4-oxadiazole-5-carboxamide] | 3.02 nM |  | > 10000 nM
Cc1c([C@@H](C)NC(=O)c2noc(C(C)(C)C)n2)ccc(-c2ncnc3[nH]c4cc(N5CCN(CC6CC(c7ccc(C8CCC(=O)NC8=O)cc7)C6)CC5)ccc4c23)c1F (stereo partly drawn) [Example 30, 5-(tert-butyl)-N-((1R)-1-(4-(7-(4-((3-(4-(2,6-dioxopiperidin-3-yl)phenyl)cyclobutyl)methyl)piperazin-1-yl)-9H-pyrimido[4,5-b]indol-4-yl)-3-fluoro-2-methylphenyl)ethyl)-1,2,4-oxadiazole-3-carboxamide] | 4.55 nM |  | > 10000 nM
Cc1cc(-c2ncnc3[nH]c4ccc(N5CCN(CC6CCN(c7ccc(N8CCC(=O)NC8=O)cc7)CC6)CC5)cc4c23)ccc1CNC(=O)c1nc(C(C)(C)C)no1 [Example 1, 3-(tert-butyl)-N-(4-(6-(4-((1-(4-(2,4-dioxotetrahydropyrimidin-1(2H)-yl)phenyl)piperidin-4-yl)methyl)piperazin-1-yl)-9H-pyrimido[4,5-b]indol-4-yl)-2-methylbenzyl)-1,2,4-oxadiazole-5-carboxamide] | 4.94 nM |  | > 10000 nM
Cc1cc(-c2ncnc3[nH]c4cc(-c5ccn(CC6CCN(c7ccc(N8CCC(=O)NC8=O)cc7)CC6)c5)ccc4c23)ccc1[C@@H](C)NC(=O)c1nc(C(C)(C)C)no1 [Example 11, (R)-3-(tert-butyl)-N-(1-(4-(7-(1-((1-(4-(2,4-dioxotetrahydropyrimidin-1(2H)-yl)phenyl)piperidin-4-yl)methyl)-1H-pyrrol-3-yl)-9H-pyrimido[4,5-b]indol-4-yl)-2-methylphenyl)ethyl)-1,2,4-oxadiazole-5-carboxamide] | 9.78 nM |  | > 10000 nM
Cc1c([C@@H](C)NC(=O)c2noc(C(C)(C)C)n2)ccc(-c2ncnc3[nH]c4cc(N5CCN(C6CCN(c7cccc(C8CCC(=O)NC8=O)c7)CC6)CC5)ccc4c23)c1F (stereo partly drawn) [Example 34, 5-(tert-butyl)-N-((1R)-1-(4-(7-(4-(1-(3-(2,6-dioxopiperidin-3-yl)phenyl)piperidin-4-yl)piperazin-1-yl)-9H-pyrimido[4,5-b]indol-4-yl)-3-fluoro-2-methylphenyl)ethyl)-1,2,4-oxadiazole-3-carboxamide] | 1.23 nM |  | 1440 nM
Cc1cc(-c2ncnc3[nH]c4cc(N5CCN([C@H]6C[C@H](c7ccc(N[C@@H]8CCC(=O)NC8=O)cc7)C6)CC5)ccc4c23)ccc1[C@@H](C)NC(=O)c1nc(C2(C)CC2)no1 [Example 117, N—((R)-1-(4-(7-(4-((1R,3r)-3-(4-(((R)-2,6-dioxopiperidin-3-yl)amino)phenyl)cyclobutyl)piperazin-1-yl)-9H-pyrimido[4,5-b]indol-4-yl)-2-methylphenyl)ethyl)-3-(1-methylcyclopropyl)-1,2,4-oxadiazole-5-carboxamide] | 0.981 nM |  | > 10000 nM
Cc1c([C@@H](C)NC(=O)c2noc(C(C)(C)C)n2)ccc(-c2ncnc3[nH]c4cc(N5CCN(C6CCN(c7ccc(C8CCC(=O)NC8=O)cc7)CC6)CC5)ccc4c23)c1F (stereo partly drawn) [Example 29, 5-(tert-butyl)-N-((1R)-1-(4-(7-(4-(1-(4-(2,6-dioxopiperidin-3-yl)phenyl)piperidin-4-yl)piperazin-1-yl)-9H-pyrimido[4,5-b]indol-4-yl)-3-fluoro-2-methylphenyl)ethyl)-1,2,4-oxadiazole-3-carboxamide] | 3.16 nM |  | > 10000 nM
Cc1cc(-c2ncnc3[nH]c4cc(C5CCN(C6CC(c7ccc([C@@H]8CCC(=O)NC8=O)cc7)C6)C5)ccc4c23)ccc1[C@@H](C)NC(=O)c1nc(C(C)(C)C)no1 (stereo partly drawn) [Example 21, 3-(tert-butyl)-N-((1R)-1-(4-(7-(1-(3-(4-((S)-2,6-dioxopiperidin-3-yl)phenyl)cyclobutyl)pyrrolidin-3-yl)-9H-pyrimido[4,5-b]indol-4-yl)-2-methylphenyl)ethyl)-1,2,4-oxadiazole-5-carboxamide] | 0.609 nM |  | 3600 nM
Cc1cc(-c2ncnc3[nH]c4cc(N5CCN(CC6CCN(c7ccc(N8CCC(=O)NC8=O)cc7)CC6)CC5)ccc4c23)ccc1[C@@H](C)NC(=O)c1nc(C2(C)CC2)no1 [Example 35, (R)—N-(1-(4-(7-(4-((1-(4-(2,4-dioxotetrahydropyrimidin-1(2H)-yl)phenyl)piperidin-4-yl)methyl)piperazin-1-yl)-9H-pyrimido[4,5-b]indol-4-yl)-2-methylphenyl)ethyl)-3-(1-methylcyclopropyl)-1,2,4-oxadiazole-5-carboxamide] | 0.15 nM |  | > 10000 nM
Cc1cc(N2CCC(CN3CCN(c4ccc5c(c4)[nH]c4ncnc(-c6ccc([C@@H](C)NC(=O)c7noc(C(C)(C)C)n7)c(C)c6F)c45)CC3)CC2)ccc1N1CCC(=O)NC1=O [Example 28, (R)-5-(tert-butyl)-N-(1-(4-(7-(4-((1-(4-(2,4-dioxotetrahydropyrimidin-1(2H)-yl)-3-methylphenyl)piperidin-4-yl)methyl)piperazin-1-yl)-9H-pyrimido[4,5-b]indol-4-yl)-3-fluoro-2-methylphenyl)ethyl)-1,2,4-oxadiazole-3-carboxamide] | 0.309 nM |  | > 10000 nM
